Data on 123 molecules can be found in a melting point compilation (Tetko et al.).

Usually melting point stands for the temperature of the solid-liquid transition. In the case of `CCOC(=O)c1cnn(-c2ccc(OCC)cc2)c1N`, the melting point was 119 to 121 °C. As to `c1cnn(CC2CCNCC2)c1`, the melting point is 45 to 47 °C.

In turn, `CC(C)(C)OC(=O)Nc1ccsc1Br` displayed a melting point of 69 to 71 °C. Next, `NC(=O)c1cccc(CO)c1`: 113 to 115 °C. The molecule `O=C(O)C1CC2CCCCC2N1C(=O)c1ccc(F)cc1` (stereo not drawn) registered a melting point of 147 to 149 °C.

With `Cc1c(Br)ccc(C(=O)O)c1N`, the melting point was 221 to 223 °C. Next, `CCS(=O)(=O)NCC(=O)O`: 85 to 87 °C. `CC1CC(N)C(=O)N1c1ccccc1` (stereo not drawn) registered a melting point of 77 to 79 °C.

On to `COC(C)(C(=O)O)c1ccccc1` (stereo not drawn), for which the melting point fell in the range of 44 to 46 °C. The figure for `O=C(O)C1CCS(=O)(=O)C1` (stereo not drawn) is 135 to 137 °C; for `N#Cc1csc(C=O)c1` it is 84 to 86 °C.

`O=C1NC(=O)C2(CCOCC2)N1` registered a melting point of 264 to 266 °C. Next, `Nc1ccc(-c2nc3ccccc3o2)cc1`: 170 to 172 °C; `CC1(C)OCC(C)(C(=O)O)CO1`: 117 to 119 °C; `CN1CCN(c2ccnc(C#N)c2)CC1`: 114 to 116 °C. Next, `N#Cc1ccc(S)cc1C(F)(F)F`: 71 to 73 °C; `NC(=O)Cc1cccc(C(F)(F)F)c1`: 106 to 108 °C; `CNC(=O)NC(=O)C(C)Cl` (stereo not drawn): 118 to 120 °C.

As to `COc1cc(CNC(=O)CCl)cc(OC)c1OC`, the melting point fell in the range of 106 to 108 °C. Next, `Cn1cc(S(=O)(=O)N2CCCC2)cc1C(=O)O`: 219 to 221 °C; `Cc1nn(-c2ccc(F)cc2)c(C)c1CC(=O)O`: 171 to 173 °C.

In turn, `Cc1ccc(F)cc1S(=O)(=O)Nc1cccc(C(=O)O)c1` returned a melting point of 215 to 217 °C. The figure for `ClCc1nc(-c2ccco2)no1` is 82 to 84 °C. The figure for `Nc1nsc(N2CCCC2)n1` is 244 to 246 °C. Next, `CCOC(=O)Nc1c(F)cc(F)cc1C#C[Si](C)(C)C`: 74 to 76 °C; `Fc1ccc(-c2nc(CCl)co2)cc1F`: 59 to 61 °C. With `COc1ccc(-c2n[nH]c(=O)c3ccccc23)cc1F`, the melting point lay in the range of 269 to 271 °C.

With `O=C(O)Cn1ccccc1=O`, the melting point fell in the range of 220 to 222 °C. Next, `NC(=O)c1c(NC(=O)CCl)sc2c1CCCC2`: 236 to 238 °C; `NNC(=O)c1cc2sccc2cn1`: 204 to 206 °C; `Nc1cccc(S(=O)(=O)Nc2cccc(C(F)(F)F)c2)c1`: 98 to 100 °C.

`Cc1[nH]c2ncnn2c(=O)c1CCO` had a melting point of 267 to 269 °C. The molecule `COc1ccc(S(N)(=O)=O)cc1Br` showed a melting point of 139 to 141 °C. The figure for `COc1nc(N)n[nH]1` is 165 to 167 °C; for `CC(C)(C)CNC(=O)Nc1ccc(Cl)c(C(=O)O)c1` it is 208 to 210 °C; for `O=C(CCN1CCOCC1)c1cc2ccccc2o1` it is 53 to 55 °C.

For the molecule `CC(C)OCc1ccccc1CNC(=O)CCl`, the melting point was in the range of 40 to 42 °C. The figure for `COc1ccc([N+](=O)[O-])cc1NC(=O)C(C)Cl` (stereo not drawn) is 131 to 133 °C. Next, `O=C(O)c1cc2c([nH]c1=O)CCC2`: 273 to 275 °C; `NCc1ccc(N2CCNC(=O)C2)cc1`: 189 to 191 °C; `O=C(O)c1cnc(Cl)cc1Cl`: 158 to 160 °C. The figure for `O=C1CCCc2cc(S(=O)(=O)Cl)ccc2N1` is 208 to 210 °C. In turn, `COc1ccc(CN2C(=O)NC(=O)C2=O)cc1` had a melting point of 168 to 170 °C. On to `CCCNc1ccc(CN2CCN(C)CC2)cn1`, for which the melting point is 69 to 71 °C. The figure for `Cc1cc(C#N)ccc1Oc1ccc(C(=O)O)cc1` is 212 to 214 °C; for `CCc1ccc(C(=O)O)cc1C#N` it is 141 to 143 °C. The figure for `O=C(O)c1cc(S(=O)(=O)N2CCCCC2)ccc1N1CCOCC1` is 173 to 175 °C; for `Clc1cc2ccccc2c(Cl)n1` it is 100 to 102 °C. Next, `N#Cc1ccc(-n2cnc(N)n2)cc1`: 238 to 240 °C. Molecule `CS(=O)(=O)N1CCN(S(=O)(=O)Cl)CC1` yielded a melting point of 222 to 224 °C. For `Cc1ccc(Cc2nnc(N)s2)cc1`, the melting point lay within 209 to 211 °C. The figure for `CCOc1ccc(-c2nnc(N)o2)cc1` is 238 to 240 °C; for `Nc1nc(-c2ccc(OCc3ccccc3)cc2)cs1` it is 160 to 162 °C.

On to `O=[N+]([O-])c1cnn(CC2CO2)c1` (stereo not drawn), for which the melting point fell in the range of 68 to 70 °C. The molecule `CC1(c2c(F)cccc2F)NC(=O)NC1=O` (stereo not drawn) had a melting point of 215 to 217 °C. The figure for `COc1cc(N)c(C(=O)O)c(OC)c1` is 106 to 108 °C; for `Cc1ccc(-n2nc(N)cc2C)cc1` it is 99 to 101 °C; for `Cc1cc(C(=O)C(C)Cl)c(C)n1-c1ccccc1` (stereo not drawn) it is 78 to 82 °C.

`NC(=O)C1CCCC1` came in with a melting point of 173 to 175 °C. `CC1Oc2c(C(=O)O)cccc2C1C` (stereo not drawn) registered a melting point of 96 to 100 °C. `Nc1nnc(CO)s1` registered a melting point of 169 to 171 °C.

The molecule `CC1=NN(c2cccc(C(F)(F)F)c2)C(=O)C1` came in with a melting point of 127 to 129 °C. The figure for `Cc1cc(C(N)=S)ccc1F` is 89 to 91 °C; for `Cc1ccc(-c2nnc(S)o2)cc1` it is 266 to 268 °C; for `Nc1ccc(F)c(NC(=O)c2ccsc2)c1` it is 118 to 120 °C. The figure for `O=C(O)C(Cc1ccccc1Br)Cc1ccccc1Br` is 145 to 147 °C.

Regarding `O=Cc1cnc(N2CCOCC2)s1`, the melting point was in the range of 163 to 165 °C. Next, `CCOC(=O)c1cnn(-c2ccc(C(=O)O)cc2)c1C(F)(F)F`: 175 to 177 °C. Next, `CCNC(=O)N1CCc2ccc(N)cc21`: 134 to 136 °C. Next, `Cc1c(Cl)cccc1-n1ccnc1SCC(=O)O`: 144 to 146 °C; `O=CC1=Cc2cc(Br)ccc2OC1`: 103 to 105 °C; `NNC(=O)Cc1cc(=O)[nH]c(S)n1`: 242 to 244 °C. `Cc1sc(N)nc1Cc1ccccc1` showed a melting point of 75 to 77 °C.

In turn, `COc1ccc(Cn2nccc2N)cc1OC` had a melting point of under 17 °C. The molecule `O=C(O)C1CC1c1ccco1` (stereo not drawn) registered a melting point of 51 to 53 °C. Next, `Nc1ccc(Sc2ccccc2Cl)cc1`: 77 to 79 °C; `CC(C)n1ncc2cc(C=O)c(Cl)nc21`: 78 to 80 °C; `NC(=NO)c1cccs1`: 81 to 83 °C. In turn, `Nc1ccc(S(=O)(=O)NC2CC2)cc1` displayed a melting point of 145 to 147 °C. With `CN1CCN(c2cccc(Cl)c2C=O)CC1`, the melting point lay in the range of 80 to 82 °C. Next, `Cn1cc(Cl)cc1C(=O)O`: 129 to 131 °C. Next, `O=C(O)CNC(=O)c1ccc(Oc2ccccc2)cc1`: 156 to 158 °C; `NNC(=O)Nc1ccc(Br)cc1`: 236 to 238 °C.

The molecule `CCc1n[nH]c(=O)c(C#N)c1CC` displayed a melting point of 166 to 168 °C.

`Cc1ccc(-c2cnc(CCl)o2)cc1` displayed a melting point of 58 to 60 °C. The figure for `Cc1cc(S(=O)(=O)Cl)cc(C(=O)O)c1Cl` is 169 to 171 °C; for `O=C(CCl)Nc1cccc(CSc2ccccn2)c1` it is 90 to 92 °C.

Molecule `Cc1cc(-c2csc(N)n2)c(F)cc1F` yielded a melting point of 219 to 221 °C. Next, `COC(=O)CCCN1C(=O)NC(C)(C)C1=O`: 60 to 62 °C. In turn, `Cc1oc(-c2ccc(Cl)c(Cl)c2)nc1C(=O)O` gave a melting point of 264 to 266 °C.

On to `O=c1[nH]c2c(s1)CCC2`, for which the melting point is 142 to 144 °C. Consider `Oc1ccc(-c2noc(C3CC3)n2)cc1`, for which the melting point lay within 149 to 151 °C.

`CC(C)c1cc(O)ncn1` showed a melting point of 131 to 133 °C. Next, `O=C(O)c1ccc(I)c(F)c1`: 233 to 235 °C. The figure for `NC(=O)c1ccc(=O)[nH]n1` is 326 to 328 °C. Next, `Nc1ccc(-c2csc(N)n2)cc1`: 178 to 180 °C; `Nc1cccc(-c2ccc(Cl)c(Cl)c2)c1`: 97 to 99 °C. As for `O=C1CCS(=O)(=O)c2c(F)cccc21`, the melting point lay in the range of 181 to 183 °C. The figure for `Cc1ccc(C(=O)Nc2cccc(CN)c2)cc1` is 131 to 133 °C. Next, `O=[N+]([O-])c1sc(Cl)nc1Cl`: 38 to 40 °C; `O=C1NC(=O)C2CN(Cc3ccccc3)CC12` (stereo not drawn): 91 to 93 °C. Next, `N#CC(N)Cc1ccccc1` (stereo not drawn): 39 to 41 °C. The molecule `Nc1nc(-c2ccccc2OC(F)F)cs1` showed a melting point of 73 to 75 °C.

As for `Nc1ccc(N2CCc3ccccc32)cc1C(=O)O`, the melting point was in the range of 189 to 191 °C. The figure for `O=C(O)CSc1ccc(F)c(F)c1` is 62 to 64 °C; for `Nc1cc(F)c(N2CCCC2)c(F)c1` it is 94 to 96 °C; for `N#Cc1ccc2nccnc2c1` it is 179 to 181 °C. Next, `CC(C)(C)c1cc(N)n(-c2ncccn2)n1`: 194 to 196 °C. The figure for `Cc1c(CCC(=O)O)c(=O)[nH]c2c1c(=O)[nH]n2C` is 304 to 306 °C. Regarding `COC(=O)c1ccc2[nH]c(=O)[nH]c2c1`, the melting point was in the range of 303 to 305 °C. The figure for `Cc1sc2nc(-c3cccs3)nc(Cl)c2c1C` is 130 to 137 °C; for `O=C(O)c1nn(Cc2ccccc2)c(=O)c2ccccc12` it is 199 to 201 °C. The figure for `Nc1cc(C(F)(F)F)no1` is 52 to 54 °C; for `NCc1cc2ccccc2[nH]1` it is 71 to 73 °C; for `O=C(O)c1cnsn1` it is 167 to 169 °C. The figure for `O=C(CCCl)Nc1ccc(N2CCOCC2)cc1` is 192 to 194 °C. As to `O=C(O)c1cccc(NS(=O)(=O)c2ccc(Cl)c(Cl)c2)c1`, the melting point lay in the range of 254 to 256 °C. Take `Cc1ccccc1CNC(=O)CCl`: the melting point fell in the range of 105 to 107 °C. Next, `COC(=O)C(Cl)c1cc(Cl)cc(Cl)c1` (stereo not drawn): 56 to 58 °C.

For `CCc1nn(C)c(CC)c1S(N)(=O)=O`, the melting point lay in the range of 177 to 179 °C. The figure for `CSc1ccc(Cl)c(C(N)=O)c1` is 144 to 146 °C; for `CN(C(=O)CCl)C(C)(C)C#N` it is 55 to 57 °C; for `NC(=O)c1ccn(-c2ccc(N)cc2)n1` it is 230 to 232 °C.
